Experiments:
Type in all cases: in vivo
[1] = tested on: Abutilon theophrasti; experiment: Herbicidal action post-emergence (greenhouse pot trial); conditions: application rate 80 g/ha, scored visually after about 3 weeks vs untreated controls
Procedure, shortened: (§1)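 Weed seeds sown in sandy loam were grown in a greenhouse for 2–3 weeks and treated at the one-leaf stage. WP or EC formulations, with 0.5% additive, were sprayed on green parts at a water rate of 600 L/ha and at 80 g/ha or lower. Efficacy was scored visually about 3 weeks later against untreated controls.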

[2] = tested on: Alopecurus myosuroides; experiment: as above; conditions: application rate 80 g/ha, scored visually after about 3 weeks vs untreated controls
Procedure, shortened: as §1

[3] = tested on: Amaranthus retroflexus; experiment: as above; conditions: application rate 80 g/ha, scored visually after about 3 weeks vs untreated controls
Procedure, shortened: as §1

[4] = tested on: Avena fatua; experiment: as above; conditions: application rate 80 g/ha, scored visually after about 3 weeks vs untreated controls
Procedure, shortened: as §1

[5] = tested on: Echinochloa crus-galli; experiment: as above; conditions: application rate 80 g/ha, scored visually after about 3 weeks vs untreated controls
Procedure, shortened: as §1

[6] = tested on: Hordeum murinum; experiment: as above; conditions: application rate 80 g/ha, scored visually after about 3 weeks vs untreated controls
Procedure, shortened: as §1

[7] = tested on: Lolium rigidum; experiment: as above; conditions: application rate 80 g/ha, scored visually after about 3 weeks vs untreated controls
Procedure, shortened: as §1

[8] = tested on: Matricaria inodora; experiment: as above; conditions: application rate 80 g/ha, scored visually after about 3 weeks vs untreated controls
Procedure, shortened: as §1

[9] = tested on: Pharbitis purpurea; experiment: as above; conditions: application rate 80 g/ha
Procedure, shortened: as §1

[10] = tested on: Polygonum convolvulus; experiment: as above; conditions: application rate 80 g/ha, scored visually after about 3 weeks vs untreated controls
Procedure, shortened: as §1

[11] = tested on: Setaria viridis; experiment: as above; conditions: application rate 80 g/ha, scored visually after about 3 weeks vs untreated controls
Procedure, shortened: as §1

[12] = tested on: Stellaria media; experiment: as above; conditions: application rate 80 g/ha, scored visually after about 3 weeks vs untreated controls
Procedure, shortened: as §1

[13] = tested on: Veronica persica; experiment: as above; conditions: application rate 80 g/ha
Procedure, shortened: as §1

[14] = tested on: Viola tricolor; experiment: as above; conditions: application rate 80 g/ha
Procedure, shortened: as §1

[15] = tested on: Oryza sativa; experiment: Crop compatibility post-emergence (greenhouse pot trial)
Procedure, shortened: (§2)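 Visual % rating about 3 weeks post-treatment against untreated plants (100% dead, 0% unaffected). Post-emergence spray of aqueous WP/EC preparations with 0.5% additive at 600 L/ha water, applied at one-leaf stage to greenhouse pot-grown crops in sandy loam.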

[16] = tested on: Triticum aestivum; experiment: as above
Procedure, shortened: as §2

[17] = tested on: Zea mays; experiment: as above
Procedure, shortened: as §2

[18] = tested on: Abutilon theophrasti; experiment: Herbicidal action pre-emergence (greenhouse pot trial); conditions: application rate 320 g/ha, scored after about 3 weeks
Procedure, shortened: (§3)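 Pre-emergence: WP or EC formulations sprayed onto covering soil over sown seeds as aqueous suspension/emulsion with 0.5% additive, 600 L/ha water, at 320 g/ha or lower. Visual percent efficacy versus untreated controls after about 3 weeks in greenhouse (100% = plants dead).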

[19] = tested on: Alopecurus myosuroides; experiment: as above; conditions: application rate 320 g/ha, scored after about 3 weeks
Procedure, shortened: as §3

[20] = tested on: Amaranthus retroflexus; experiment: as above; conditions: application rate 320 g/ha, scored after about 3 weeks
Procedure, shortened: as §3

[21] = tested on: Avena fatua; experiment: as above; conditions: application rate 320 g/ha
Procedure, shortened: as §3

[22] = tested on: Cyperus esculentus; experiment: as above; conditions: application rate 320 g/ha
Procedure, shortened: as §3

[23] = tested on: Echinochloa crus-galli; experiment: as above; conditions: application rate 320 g/ha, scored after about 3 weeks
Procedure, shortened: as §3

[24] = tested on: Hordeum murinum; experiment: as above; conditions: application rate 320 g/ha
Procedure, shortened: as §3

[25] = tested on: Lolium rigidum; experiment: as above; conditions: application rate 320 g/ha
Procedure, shortened: as §3

[26] = tested on: Matricaria inodora; experiment: as above; conditions: application rate 320 g/ha, scored after about 3 weeks
Procedure, shortened: as §3

[27] = tested on: Pharbitis purpurea; experiment: as above; conditions: application rate 320 g/ha
Procedure, shortened: as §3

[28] = tested on: Setaria viridis; experiment: as above; conditions: application rate 320 g/ha, scored after about 3 weeks
Procedure, shortened: as §3

[29] = tested on: Stellaria media; experiment: as above; conditions: application rate 320 g/ha, scored after about 3 weeks
Procedure, shortened: as §3

[30] = tested on: Viola tricolor; experiment: as above; conditions: application rate 320 g/ha, scored after about 3 weeks
Procedure, shortened: as §3

[31] = tested on: Zea mays; experiment: Crop compatibility pre-emergence (greenhouse pot trial); conditions: effect vs untreated controls
Procedure, shortened: (§4)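 Compounds, formulated as WP or EC plus 0.5% additive, applied to covering soil after sowing at a water rate of 600 L/ha. After roughly 3 weeks under greenhouse conditions, visual % injury to crops rated against untreated plants, 0% meaning like control.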

[32] = tested on: Glycine max; experiment: Crop compatibility post-emergence (greenhouse pot trial); conditions: application rate 25 g/ha
Procedure, shortened: as §2

[33] = tested on: Veronica persica; experiment: Herbicidal action pre-emergence (greenhouse pot trial); conditions: application rate 320 g/ha
Procedure, shortened: as §3

[34] = tested on: Digitaria sanguinalis; experiment: Herbicidal action post-emergence (greenhouse pot trial); conditions: application rate 80 g/ha
Procedure, shortened: as §1

[35] = tested on: Digitaria sanguinalis; experiment: Herbicidal action pre-emergence (greenhouse pot trial); conditions: application rate 80 g/ha
Procedure, shortened: as §3

[36] = tested on: Glycine max; experiment: Crop compatibility pre-emergence (greenhouse pot trial); conditions: application rate 20 g/ha, effect vs untreated controls
Procedure, shortened: as §4

## CC(Sc1cc(-n2c(=O)cc(C(F)(F)F)n(C)c2=O)c(F)cc1Cl)C(=O)NCC1CCCO1 (stereo not drawn) [I.1-221]
[1]
  Abutilon theophrasti (Efficacy in %): 100%
[2]
  Alopecurus myosuroides (Efficacy in %): 90%
[3]
  Amaranthus retroflexus (Efficacy in %): 100%
[4]
  Avena fatua (Efficacy in %): 80%
[5]
  Echinochloa crus-galli (Efficacy in %): 100%
[6]
  Hordeum murinum (Efficacy in %): 80%
[7]
  Lolium rigidum (Efficacy in %): 90%
[8]
  Matricaria inodora (Efficacy in %): 100%
[9]
  Pharbitis purpurea (Efficacy in %): 100%
[10]
  Polygonum convolvulus (Efficacy in %): 100%
[11]
  Setaria viridis (Efficacy in %): 100%
[12]
  Stellaria media (Efficacy in %): 100%
[13]
  Veronica persica (Efficacy in %): 100%
[14]
  Viola tricolor (Efficacy in %): 100%
[15]; application rate 20 g/ha
  Oryza sativa (Efficacy in %): 0%
[16]; application rate 20 g/ha
  Triticum aestivum (Efficacy in %): 20%
[17]; application rate 5 g/ha
  Zea mays (Efficacy in %): 10%
[18]
  Abutilon theophrasti (Efficacy in %): 100%
[19]
  Alopecurus myosuroides (Efficacy in %): 90%
[20]
  Amaranthus retroflexus (Efficacy in %): 100%
[21]
  Avena fatua (Efficacy in %): 100%
[22]
  Cyperus esculentus (Efficacy in %): 100%
[23]
  Echinochloa crus-galli (Efficacy in %): 100%
[24]
  Hordeum murinum (Efficacy in %): 100%
[25]
  Lolium rigidum (Efficacy in %): 100%
[26]
  Matricaria inodora (Efficacy in %): 100%
[27]
  Pharbitis purpurea (Efficacy in %): 100%
[28]
  Setaria viridis (Efficacy in %): 100%
[29]
  Stellaria media (Efficacy in %): 100%
[30]
  Viola tricolor (Efficacy in %): 100%
[31]; application rate 20 g/ha
  Zea mays (Efficacy in %): 0%

## CON(C(=O)C(C)Sc1cc(-n2c(=O)cc(C(F)(F)F)n(C)c2=O)c(F)cc1Cl)C1CCOC1 (stereo not drawn) [I.1-341]
[1]
  Abutilon theophrasti (Efficacy in %): 100%
[2]
  Alopecurus myosuroides (Efficacy in %): 90%
[3]
  Amaranthus retroflexus (Efficacy in %): 100%
[4]
  Avena fatua (Efficacy in %): 90%
[5]
  Echinochloa crus-galli (Efficacy in %): 100%
[6]
  Hordeum murinum (Efficacy in %): 90%
[7]
  Lolium rigidum (Efficacy in %): 100%
[8]
  Matricaria inodora (Efficacy in %): 100%
[9]
  Pharbitis purpurea (Efficacy in %): 100%
[10]
  Polygonum convolvulus (Efficacy in %): 100%
[11]
  Setaria viridis (Efficacy in %): 100%
[12]
  Stellaria media (Efficacy in %): 100%
[13]
  Veronica persica (Efficacy in %): 100%
[14]
  Viola tricolor (Efficacy in %): 100%
[32]
  Glycine max (Efficacy in %): 10%
[15]; application rate 5 g/ha
  Oryza sativa (Efficacy in %): 10%
[16]; application rate 20 g/ha
  Triticum aestivum (Efficacy in %): 10%
[17]; application rate 20 g/ha
  Zea mays (Efficacy in %): 10%
[18]
  Abutilon theophrasti (Efficacy in %): 100%
[19]
  Alopecurus myosuroides (Efficacy in %): 90%
[20]
  Amaranthus retroflexus (Efficacy in %): 100%
[21]
  Avena fatua (Efficacy in %): 90%
[23]
  Echinochloa crus-galli (Efficacy in %): 100%
[24]
  Hordeum murinum (Efficacy in %): 80%
[25]
  Lolium rigidum (Efficacy in %): 100%
[26]
  Matricaria inodora (Efficacy in %): 100%
[27]
  Pharbitis purpurea (Efficacy in %): 100%
[28]
  Setaria viridis (Efficacy in %): 100%
[29]
  Stellaria media (Efficacy in %): 100%
[33]
  Veronica persica (Efficacy in %): 100%
[30]
  Viola tricolor (Efficacy in %): 100%
[31]; application rate 80 g/ha
  Zea mays (Efficacy in %): 0%

## CCC(Sc1cc(-n2c(=O)cc(C(F)(F)F)n(C)c2=O)c(F)cc1Cl)C(=O)OCC1CCOC1 (stereo not drawn) [I.2-72, Tetrahydrofuran-3-ylmethyl 2-({2-chloro-4-fluoro-5-[3-methyl-2,6-dioxo-4-(trifluoromethyl)-3,6-dihydropyrimidin-1(2H)-yl]phenyl}sulfanyl)butanoate]
[1]
  Abutilon theophrasti (Efficacy in %): 100%
[2]
  Alopecurus myosuroides (Efficacy in %): 90%
[3]
  Amaranthus retroflexus (Efficacy in %): 100%
[4]
  Avena fatua (Efficacy in %): 80%
[34]
  Digitaria sanguinalis (Efficacy in %): 100%
[5]
  Echinochloa crus-galli (Efficacy in %): 100%
[6]
  Hordeum murinum (Efficacy in %): 80%
[7]
  Lolium rigidum (Efficacy in %): 80%
[8]
  Matricaria inodora (Efficacy in %): 100%
[9]
  Pharbitis purpurea (Efficacy in %): 100%
[10]
  Polygonum convolvulus (Efficacy in %): 100%
[11]
  Setaria viridis (Efficacy in %): 100%
[12]
  Stellaria media (Efficacy in %): 100%
[13]
  Veronica persica (Efficacy in %): 100%
[14]
  Viola tricolor (Efficacy in %): 100%
[15]; application rate 5 g/ha
  Oryza sativa (Efficacy in %): 20%
[16]; application rate 80 g/ha
  Triticum aestivum (Efficacy in %): 20%
[18]
  Abutilon theophrasti (Efficacy in %): 100%
[19]
  Alopecurus myosuroides (Efficacy in %): 100%
[20]
  Amaranthus retroflexus (Efficacy in %): 100%
[21]
  Avena fatua (Efficacy in %): 80%
[35]
  Digitaria sanguinalis (Efficacy in %): 100%
[23]
  Echinochloa crus-galli (Efficacy in %): 100%
[24]
  Hordeum murinum (Efficacy in %): 90%
[25]
  Lolium rigidum (Efficacy in %): 90%
[26]
  Matricaria inodora (Efficacy in %): 100%
[27]
  Pharbitis purpurea (Efficacy in %): 100%
[28]
  Setaria viridis (Efficacy in %): 100%
[29]
  Stellaria media (Efficacy in %): 100%
[33]
  Veronica persica (Efficacy in %): 100%
[30]
  Viola tricolor (Efficacy in %): 100%
[36]
  Glycine max (Efficacy in %): 20%
[31]; application rate 80 g/ha
  Zea mays (Efficacy in %): 10%
